Measured values taken from publication PMC3812281, “Synthetic Oxoisoaporphine Alkaloids: In Vitro, In Vivo and In Silico Assessment of Antileishmanial Activities” (PLoS ONE, 2013).

biological target: T1, acetylcholinesterase (AChE) (Homo sapiens, UniProt P22303); test: Ellman assay, percent inhibition at […]; format: biochemical
T1 construct: recombinant acetylcholinesterase (AChE) expressed in HEK 293 cells
T1 sequence (P22303 32-614): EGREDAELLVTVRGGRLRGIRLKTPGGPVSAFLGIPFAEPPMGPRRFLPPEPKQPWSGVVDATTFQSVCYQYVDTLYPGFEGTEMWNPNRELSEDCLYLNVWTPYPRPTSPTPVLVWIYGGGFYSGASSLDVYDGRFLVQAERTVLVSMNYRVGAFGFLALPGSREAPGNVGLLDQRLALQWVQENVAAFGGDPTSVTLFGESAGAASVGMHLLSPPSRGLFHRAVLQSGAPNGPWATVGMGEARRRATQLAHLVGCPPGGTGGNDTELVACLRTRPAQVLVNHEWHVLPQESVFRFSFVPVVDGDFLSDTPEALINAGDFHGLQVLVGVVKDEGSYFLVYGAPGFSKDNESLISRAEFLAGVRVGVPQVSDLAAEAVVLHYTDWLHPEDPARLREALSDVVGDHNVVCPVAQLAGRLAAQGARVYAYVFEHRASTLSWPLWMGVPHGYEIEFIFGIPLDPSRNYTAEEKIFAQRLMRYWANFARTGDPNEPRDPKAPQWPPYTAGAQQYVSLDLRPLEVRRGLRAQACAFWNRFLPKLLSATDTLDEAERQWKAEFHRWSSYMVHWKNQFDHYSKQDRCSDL

In order of falling inhibition at 75 µM:
1. C#CCN[C@@H]1CCc2ccccc21 [Rasagiline, reference compound]  82.5 ± 4.3%
2. O=C1c2ccccc2C2=NCCc3cccc1c32 [OXO 1, 2,3-dihydro-7H-dibenzo[de,h]quinolin-7-one]  26.2 ± 5.6%
3. O=C1C2=C(CCCC2)C2=NCCc3cccc1c32 [OXO 13, 2,3,8,9,10,11-hexahydro-7H-dibenzo[de,h]quinolin-7-one]  25.6 ± 5.9%
